The text below walks through data of patent US9598384B2, “3-(2-amino-ethyl)-alkylidene)-thiazolidine-2,4-dione and 1-(2-amino-ethyl)-alkylidene-1,3-dihydro-indol-2-one derivatives as selective sphingosine kinase 2 inhibitors” (VIRGINIA COMMONWEALTH UNIVERSITY, priority 2012, dated 2017).

Where “and” joins values, the source holds several entries; their conditions need not be identical. Identical values can stand only once. Entries after “also recorded” stand apart in the source; their conditions may differ.

For series [1], the system named is U937 cells. Briefly: Cell apoptosis assay, annexin V/PI flow cytometry. The series is classed as cell-based, human. Here is the method: Apoptosis was measured by flow cytometry using annexin V/propidium iodide (PI) as staining reagent. […] The cells were then incubated with annexin V-fluorescein isothiocyanate (FITC) (BD PharMingen, San Diego, Calif.) and 5 μg/mL propidium iodide (PI), and incubated for 15 minutes at room temperature in the dark per the manufacturer's instructions. The samples were analyzed by flow cytometry using a Becton Dickinson FACScan (Becton Dickinson, San Jose, Calif.) within 1 hr to determine the percentage of cells displaying annexin V staining (early apoptosis) or both annexin V and PI staining (late apoptosis).

Series [2] deals with Raf/MEK/ERK and PI3K/Akt signaling pathways. Briefly: Western blot analysis of ERK and Akt phosphorylation. Format: cell-based. Here is the method: Cells (5×10^5 per ml) were treated with various concentrations of test compound at 37° C. (5% CO2) for 3 hrs, then stimulated with TPA at a final concentration of 200 nM for 20 min. Samples from whole-cell pellets were prepared and 30 μg protein for each condition was subjected to SDS-PAGE, transferred onto a PVDF membrane, and blocked with 5% fat-free milk for 30 min. The membrane is probed with primary antibodies overnight at 4° C. followed by incubation with horseradish peroxidase-labeled anti-mouse IgG (1:5000, BD Bioscience). The immunoreactive bands are detected by chemilluminescence methods (Pierce) and visualized on Kodak Omat film. The following primary antibodies were used: phospho-p44/42 MAPK (ERK1/2, Thr202/Tyr204), p44/42 MAPK, phospho-p90RSK (Thr359/Ser363), RSK1/RSK2/RSK3 (Cell Signaling). Blots were reprobed with antibodies against α-tubulin to ensure equal loading and transfer of proteins.
A general note: A western blot detects proteins with antibodies after separation by electrophoresis.

For a further series, the system named is U937 xenograft. Briefly: U937 xenografts in nude mice, oral administration.
The subject of series [3] is ceramide-1-phosphate (C1P). Briefly: C1P species in U937 cells by ESI-MS/MS. Format: cell-based, human. The note with it: 10 μM, 3 h. Here is the method: (§1) FIG. 16A-E. K145 accumulates and suppresses the S1P level. A and B) U937 cells were treated with K145 at the indicated concentrations for 3 h and the levels of K145 and S1P were measured by ESI-MS/MS. C) HEK293 cells were treated with K145 (10 μM) for 2 h. Lipids were extracted and different chain length species of ceramide were determined by LC-ESI-MS/MS. Numbers indicate chain length followed by the number of double bonds in the fatty acid. Data are averages of triplicate determinations and are expressed as pmol lipid/10^6 cells. D) U937 cells were treated with or without K145 (10 μM) for 3 h and levels of C1P species were determined by ESI-MS/MS. E) U937 cells were treated with FTY720 (1 μM) in the absence or presence of indicated K145 for 3 h, then FTY720-P was measured by ESI-MS/MS. *P<0.05 compared to control.
(§2) Next we examined whether K145 affects cellular levels of S1P. […] Therefore, we further characterized K145 in U937 cells. […] This might be due to the fact that many enzymes such as SphK1, SphK2, S1P lyase, and S1P phosphatise, not just SphK2, are involved in the regulation of cellular S1P. […] To further confirm its SphK2 selectivity, we then tested the effects of K145 on the phosphorylation of FTY720, a SphK2 specific substrate.

In series [4] the test system is U937 cells. Description: Uptake of K145 by U937 cells, ESI-MS/MS. Format: in vitro ADME, human. The note with it: 3 h, concentration dependent. Here is the method:
as §1, §2

The next series addresses T1, SphK2 (Homo sapiens, UniProt Q9NRA0).
T1 sequence (Q9NRA0 1-654): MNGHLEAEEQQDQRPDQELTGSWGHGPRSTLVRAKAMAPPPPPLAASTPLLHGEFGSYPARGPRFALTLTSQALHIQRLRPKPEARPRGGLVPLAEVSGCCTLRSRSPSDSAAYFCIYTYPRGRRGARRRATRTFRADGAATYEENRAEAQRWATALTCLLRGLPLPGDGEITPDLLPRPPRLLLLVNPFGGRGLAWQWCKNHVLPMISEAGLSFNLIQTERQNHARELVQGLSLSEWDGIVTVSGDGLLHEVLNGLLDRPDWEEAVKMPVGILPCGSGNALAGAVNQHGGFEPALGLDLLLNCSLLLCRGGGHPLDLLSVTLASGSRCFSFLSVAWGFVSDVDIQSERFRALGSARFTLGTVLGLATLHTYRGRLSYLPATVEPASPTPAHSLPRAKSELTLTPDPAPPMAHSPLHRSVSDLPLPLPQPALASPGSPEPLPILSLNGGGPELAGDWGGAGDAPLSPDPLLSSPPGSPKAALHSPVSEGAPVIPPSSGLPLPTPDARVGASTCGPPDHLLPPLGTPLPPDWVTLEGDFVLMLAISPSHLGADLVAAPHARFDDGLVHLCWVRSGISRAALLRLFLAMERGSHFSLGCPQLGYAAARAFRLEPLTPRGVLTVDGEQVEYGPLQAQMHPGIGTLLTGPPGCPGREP
Description: SphK2 activity assay (sphingosine substrate, with kinetic study). Format: biochemical.

Another series relates to ceramide. Description: Ceramide species in HEK293 cells by LC-ESI-MS/MS. The series is classed as cell-based. The note with it: 10 μM, 2 h. Here is the method:
as §1

Series [5] relates to human leukemia U937 cells. Briefly: Cell viability assay in human leukemia U937 cells. Format: cell-based. Here is the method: Cells were cultured at a density of 5×10^4 (U937) or 1×10^4 (PC-3, DU145, M12, HT29) cells per well in flat bottomed 96-well plates and treated with various concentrations of test compound at 37° C. (5% CO2). After 24 h, 20 μL of CellTiter 96® Aqueous One Solution Reagent (Promega, Madison, Wis.) was added to each well according to the manufacturer's instructions. After 1 hour, the cell viability was determined by measuring the absorbance at 490 nm using a micro-plate reader.

A further series concerns S1P. Briefly: Cellular S1P level in U937 cells by ESI-MS/MS. The series is classed as cell-based, human. The note with it: 10 μM, 3 h. Here is the method:
as §1, §2

Description for SphK2: A) SphK1 and SphK2 activities were measured with 5 μM sphingosine in the absence or presence of the indicated concentrations of K145 or 10 μM DMS. […] Data are expressed as percentage of control activity averaged from 2 independent experiments. Data are expressed as mean value±SEM.
SphK2 was incubated with indicated compounds at 10 μM, then the activity of SphK2 was determined. The data shown here is a relative activity of SphK2 compared to control (no inhibitor, column labeled Sph in the Figure). […] “A” and “B” refer to different batches of a compound.
SphK2 was incubated with indicated compounds at 10 μM, then the activity of SphK2 was determined. The data shown here is a relative activity of SphK2 compared to control (no inhibitor).
Description for U937 xenograft: BALB/c-nu mice (n=7) with palpable U937 xenograft were treated daily with vehicle, tamibarotene (20 mg/kg), or K145 (50 mg/kg) for 15 days by oral gavage. After treatment, animals were sacrificed and tumors were removed, weighed and images were taken. […] Data are expressed as mean value±SEM. *P<0.05 compared to control group.
In this experiment, K145 was given at 50 mg/kg by oral gavage daily for 15 days and tumor volume and animal weights were measured every other day. Again, tamibarotene (20 mg/kg) was used as positive control.

With `CCCCOc1ccc(CC/C=C2\SC(=O)N(CCN)C2=O)cc1` [K145, 3-(2-aminoethyl)-5-[3-(4-butoxyl-phenyl)-propylidene]-thiazolidine-2,4-dione], the “induction of apoptosis in U937 cells” value in the series with U937 cells [1] (5 μM, after 18 hrs) is “significantly induced apoptosis”; in the series with U937 cells [1] (10 μM, 4 hrs treatment), “significantly induced apoptosis”; in the series on U937 cells [1] (varying concentrations and intervals), “significantly and dose-dependently induced apoptosis”. Further, the “phosphorylation of both ERK and Akt” value in series [2] (3 μM, 3 hrs treatment, then TPA stimulation) is on record as “significantly inhibited”. In [2] (Western blot, FIGS. 9 and 10), the “inhibition of Raf/MEK/ERK and PI3K/Akt signaling pathways” value is listed as “inhibits”. Besides, the oral availability result in the series with U937 xenograft (50 mg/kg oral gavage) was “orally available”. Moreover, the toxicity result with U937 xenograft (50 mg/kg oral, 15 days) is “no apparent toxicity was observed”. Further, in the series on U937 xenograft (50 mg/kg oral, beginning of the treatment, recovered later), the body weights entry is “slight decrease of body weights”. Also, the “TGI (tumor growth inhibition)” value in the series with U937 xenograft (oral gavage daily 15 days, K145 50 mg/kg, tamibarotene 20 mg/kg) was found to be 51.25%. Besides, in [3], the “level of ceramide-1-phosphate (C1P)” value is recorded as “not significantly affected”. Further, in the series with U937 cells [4], the “uptake by U937 cells” value was “readily taken up”. Also, the Ki (as a rule, a dissociation constant, usually derived from enzyme kinetics or from competition with a known ligand) on SphK2 (Lineweaver-Burk analysis, increasing concentrations of sphingosine) is 6.4 ± 0.7 µM. Besides, the IC50 – broadly, the midpoint of a concentration-inhibition curve – at SphK2 (recombinant SphK2, 5 μM sphingosine) was 5 µM and 4.3 µM. Further, the “inhibition of SphK2 activity (in words)” value at SphK2 (relative activity vs no inhibitor, compounds at 10 μM (FIGS. 1, 3, 5)) is on record as “significantly inhibit SphK2; also recorded: inhibits SphK2”. Moreover, the “type of SphK2 inhibition” value on SphK2 (with the substrate sphingosine) was “competitive inhibitor”. The ceramide levels result in the series with ceramide was “without significant effects”. Moreover, the “IC50 for proliferation of tested cancer cells (in words)” value in series [5] (FIG. 8, U937 cells, 24 h) is given as “single digit micromolar”. Besides, the “inhibition of growth/proliferation of U937 cells (in words)” value in [5] (human leukemia U937 cells) is reported as “dose-dependently inhibits the growth”. Further, the “total cellular S1P” value in the series on S1P was “caused a decrease”.
